Assay results published in patent US20210107874A1, “PHARMACEUTICAL FORMULATION OF CROTONYLAMINOPYRIDINE SALT” (priority 2017, published 2021).

Tests used:
[1] = Visual solubility test of compound 5 in aqueous acid solution; format: physicochemical
Experimental: A visual solubility test (100 μL) at a series of target concentrations of 50, 100 or 200 mg/mL of compound 5 in aqueous acid solution was performed.
In a 96 well plate (400-600 μL), compound 5 was dispensed (5, 10, or 20 mg per well), acid was added (100 μl of a 350 mM solution in water to each well) and the mixtures were equilibrated at 25° C. with stirring. Solubility was checked by visual inspection after 30 min and after one day.

[2] = Stability tests of solutions of compound 4 with equimolar acids in water; format: physicochemical; settings: for solubility: water with equimolar acid, thermodynamic from solid
Experimental: Equimolar amounts of compound 4 and acids were diluted with water: Water was added until all residues were dissolved. 200, 100 and 50 mg of compound 4 was used, each amount was combined with each acid of the following list. The solutions were equilibrated at room temperature and then held for 7 days at room temperature and thereafter 7 days at 8° C.

[3] = Acetic Acid 350 mM in water, 25° C.
[4] = Ethanesulfonic Acid 350 mM in water
[5] = Glucuronic Acid 350 mM in water
[6] = Glutamic Acid 350 mM in water, 25° C.
[7] = Methanesulfonic Acid 350 mM in water
[8] = Methanesulfonic Acid 350 mM in water, 25° C.
[9] = Nicotinic Acid 350 mM in water, 25° C.
[10] = Oxoglutaric Acid 350 mM in water
[11] = lsethionic Acid 350 mM in water
[12] = lsethionic Acid 350 mM in water, 25° C.

For `COc1cc(NCCNC(=O)/C=C/C(C)(F)F)ccn1` [Compound 5], the “pH for 50 mg/mL” value ([1]; Acetic Acid 350 mM in water) was 5.09, the “pH for 100 mg/mL” value ([1]; Acetic Acid 350 mM in water) was 5.02 and the “pH for 200 mg/mL” value ([1]; Acetic Acid 350 mM in water) was 5.06. For the same compound, the “Range at 1 Day” value [1, 3] was less than 58 mg/mL, the “Range at 30 mins.” value [1, 3] was less than 58 mg/mL and the “pH for 50 mg/mL” value ([1]; Benzoic Acid 350 mM in water) was 4.94. For the same compound, the “pH for 100 mg/mL” value ([1]; Benzoic Acid 350 mM in water) was 5.23, the “pH for 200 mg/mL” value ([1]; Benzoic Acid 350 mM in water) was 5.20 and the “pH for 50 mg/mL” value ([1]; Citric Acid 350 mM in water) was 3.36. For the same compound, the “pH for 100 mg/mL” value ([1]; Citric Acid 350 mM in water) was 4.06, the “pH for 200 mg/mL” value ([1]; Citric Acid 350 mM in water) was 4.84 and the “pH for 50 mg/mL” value [1, 4] was 0.96. The “pH for 100 mg/mL” value [1, 4] was 1.17, the “pH for 200 mg/mL” value [1, 4] was 4.99 and the “pH for 50 mg/mL” value ([1]; Fumaric Acid 350 mM in water) was 3.59. For the same compound, the “pH for 100 mg/mL” value ([1]; Fumaric Acid 350 mM in water) was 3.89, the “pH for 200 mg/mL” value ([1]; Fumaric Acid 350 mM in water) was 4.86 and the “pH for 50 mg/mL” value [1, 5] was 3.60. The “pH for 100 mg/mL” value [1, 5] was 4.86, the “pH for 200 mg/mL” value [1, 5] was 4.80 and the “pH for 50 mg/mL” value ([1]; Glutamic Acid 350 mM in water) was 5.11. For the same compound, the “pH for 100 mg/mL” value ([1]; Glutamic Acid 350 mM in water) was 5.05, the “pH for 200 mg/mL” value ([1]; Glutamic Acid 350 mM in water) was 5.14 and the “Range at 1 Day” value [1, 6] was less than 53 mg/mL. The “Range at 30 mins.” value [1, 6] was less than 53 mg/mL, the “pH for 50 mg/mL” value ([1]; Lactic Acid 350 mM in water) was 4.50 and the “pH for 100 mg/mL” value ([1]; Lactic Acid 350 mM in water) was 4.88. The “pH for 200 mg/mL” value ([1]; Lactic Acid 350 mM in water) was 4.94, the “pH for 50 mg/mL” value ([1]; Malic Acid 350 mM in water) was 3.68 and the “pH for 100 mg/mL” value ([1]; Malic Acid 350 mM in water) was 4.45. For the same compound, the “pH for 200 mg/mL” value ([1]; Malic Acid 350 mM in water) was 4.78, the “pH for 50 mg/mL” value [1, 7] was 7.60 and the “pH for 100 mg/mL” value [1, 7] was 7.61. For the same compound, the “pH for 200 mg/mL” value [1, 7] was 7.31, the “Range at 1 Day” value [1, 8] was less than 52 mg/mL and the “Range at 30 mins.” value [1, 8] was less than 52 mg/mL. For the same compound, the “pH for 50 mg/mL” value ([1]; Nicotinic Acid 350 mM in water) was 5,25, the “pH for 100 mg/mL” value ([1]; Nicotinic Acid 350 mM in water) was 5.15 and the “pH for 200 mg/mL” value ([1]; Nicotinic Acid 350 mM in water) was 5.16. For the same compound, the “Range at 1 Day” value [1, 9] was less than 74 mg/mL, the “Range at 30 mins.” value [1, 9] was less than 74 mg/mL and the “pH for 50 mg/mL” value ([1]; Oxalic Acid 350 mM in water) was 1.81. The “pH for 100 mg/mL” value ([1]; Oxalic Acid 350 mM in water) was 3.27, the “pH for 200 mg/mL” value ([1]; Oxalic Acid 350 mM in water) was 4.81 and the “pH for 50 mg/mL” value [1, 10] was 2.66. For the same compound, the “pH for 100 mg/mL” value [1, 10] was 4.17, the “pH for 200 mg/mL” value [1, 10] was 4.89 and the “pH for 50 mg/mL” value ([1]; Succinic Acid 350 mM in water) was 4.57. For the same compound, the “pH for 100 mg/mL” value ([1]; Succinic Acid 350 mM in water) was 5.01, the “pH for 200 mg/mL” value ([1]; Succinic Acid 350 mM in water) was 4.99 and the “pH for 50 mg/mL” value ([1]; Tartaric Acid 350 mM in water) was 2.92. For the same compound, the “pH for 100 mg/mL” value ([1]; Tartaric Acid 350 mM in water) was 3.71, the “pH for 200 mg/mL” value ([1]; Tartaric Acid 350 mM in water) was 4.70 and the solubility at 30 min ([1]; aqueous acid solution, aqueous buffer, thermodynamic from solid, Benzoic Acid 350 mM in water, 25° C., read-out: Range at 30 mins.) was less than 49 mg/mL. For the same compound, the “pH for 50 mg/mL” value [1, 11] was 7.83, the “pH for 100 mg/mL” value [1, 11] was 7.85 and the “pH for 200 mg/mL” value [1, 11] was 7.93. The “Range at 1 Day” value [1, 12] was less than 52 mg/mL, the “Range at 30 mins.” value [1, 12] was less than 52 mg/mL and the “solubility (in words)” value ([1]; with nicotinic acid, methanesulfonic acid, isethionic acid, benzoic acid, acetic acid and glutamic acid) was “poor solubility”. The “solubility (in words)” value ([1]; with tartaric acid, fumaric acid, citric acid, malic acid, oxalic acid, oxoglutaric acid and ethanesulfonic acid) was “good solubility”.

For `CCOc1cc(NCCNC(=O)/C=C/C(F)(F)F)ccn1` [Compound 4, (E)-N-[2-[(2-ethoxy-4-pyridyl)amino]ethyl]-4,4,4-trifluoro-but-2-enamide], the pH ([2]; equimolar Citric acid in water) was 3.41, the pH ([2]; equimolar D-glucoronic acid in water) was 4.15 and the pH ([2]; equimolar Ethanesulfonic acid in water) was 1.23. The pH ([2]; equimolar Fumaric acid in water) was 3.74, the pH ([2]; equimolar Hydrochloric acid in water) was 1.15 and the pH ([2]; equimolar L-lactic acid in water) was 4.28. The pH ([2]; equimolar Methanesulfonic acid in water) was 1.28, the pH ([2]; equimolar Oxalic acid in water) was 2.14 and the pH ([2]; equimolar Sulfuric acid in water) was 0.06. The pH ([2]; equimolar Tartaric acid in water) was 3.35, the solubility ([2]; pH 0.06, water, equimolar Sulfuric acid in water) was greater than 200 mg/mL and the solubility ([2]; pH 1.15, water, equimolar Hydrochloric acid in water) was greater than 200 mg/mL. For the same compound, the solubility ([2]; pH 1.23, water, equimolar Ethanesulfonic acid in water) was greater than 200 mg/mL, the solubility ([2]; pH 1.28, water, equimolar Methanesulfonic acid in water) was greater than 200 mg/mL and the solubility ([2]; pH 2.14, water, equimolar Oxalic acid in water) was greater than 200 mg/mL. The solubility ([2]; water, equimolar Citric acid in water) was greater than 200 mg/mL, the solubility ([2]; water, equimolar D-glucoronic acid in water) was greater than 100 mg/mL and the solubility ([2]; water, equimolar Fumaric acid in water) was greater than 200 mg/mL. It also gave a solubility ([2]; water, equimolar L-lactic acid in water) greater than 100 mg/mL, a solubility ([2]; water, equimolar Phosphoric acid in water) greater than 100 mg/mL and a solubility ([2]; water, equimolar Tartaric acid in water) greater than 200 mg/mL. It also gave a solubility ([2]; water, equimolar acetic acid in water) of less than 50 mg/mL, a solubility ([2]; water, equimolar benzenesulfonic acid in water) of less than 50 mg/mL and a solubility ([2]; water, equimolar benzoic acid in water) of less than 50 mg/mL. It also gave a solubility ([2]; water, equimolar ethanedisulfonic acid in water) of less than 50 mg/mL, a solubility ([2]; water, equimolar isethionic acid in water) greater than 200 mg/mL and a solubility ([2]; water, equimolar maleic acid in water) of less than 50 mg/mL. For the same compound, the solubility ([2]; water, equimolar malonic acid in water) was less than 50 mg/mL, the solubility ([2]; water, equimolar p-toluenesulfonic acid in water) was less than 50 mg/mL and the solubility ([2]; water, equimolar saccharin in water) was less than 50 mg/mL. The solubility ([2]; water, equimolar succinic acid in water) was less than 50 mg/mL.
